Results taken from patent publication US8507488B2, “Fused nitrogen containing heterocycles and compositions thereof as kinase inhibitors” (IRM LLC, priority 2008, dated 2013).
Where two headings read alike, the source gives them in different places.

Key:
[1] = target: T1, Tel-TrkA (Homo sapiens, UniProt P04629); test: Inhibition of proliferation of Ba/F3 cells expressing Tel-TrkA (BaF3/Tel-TrkA, luciferase/Bright Glo readout); format: cell-based; settings: read-out: Ba/F3 Tel-TrkA IC 50
T1 construct: dimerization domain of Tel (ETV6) transcription factor (fusion partner, human ETV6 P41212); expressed in transfected cells; host or cells: luciferase expressing Ba/F3 murine hematopoietic progenitor cells; the other entry of the earlier key: ETV6 (P41212, Transcription factor ETV6)
T1 sequence (P04629 510-796 limits assumed): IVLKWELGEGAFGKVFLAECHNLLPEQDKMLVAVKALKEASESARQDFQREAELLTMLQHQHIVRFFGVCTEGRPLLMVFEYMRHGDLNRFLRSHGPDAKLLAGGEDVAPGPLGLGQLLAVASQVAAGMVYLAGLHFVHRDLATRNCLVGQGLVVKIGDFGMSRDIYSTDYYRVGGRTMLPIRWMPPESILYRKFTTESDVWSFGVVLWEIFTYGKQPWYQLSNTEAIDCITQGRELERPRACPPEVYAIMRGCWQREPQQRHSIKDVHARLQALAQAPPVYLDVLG
Experimental: (§1) Test compounds were dissolved in DMSO (10 mM) and transferred into 1.4 mL flat bottom or V-shaped Matrix tubes carrying a unique 2D matrix chip by individual compound hubs. The numbers of these chips were distinctively linked to the individual compound identification numbers. The stock solutions were stored at −20° C. if not used immediately. For the test procedure the vials were defrosted and identified by a scanner whereby a working sheet is generated that guides the subsequent working steps.
(§2) Compound dilutions were made in 384 well plates. This format enabled the assay of maximally 28 individual test compounds at 12 concentrations (single points) including 2 reference compounds. The dilution protocol included the production of pre-dilution plates, master plates and assay plates: • Compound plates: 30 μL of individual compound (10 mM) DMSO solution including standard compound were transferred into columns 1 and 13 of a 384 well plate. 20 μL of DMSO were added to the rest of the wells and the compounds were serially diluted (1:3) by transferring 10 μL from a well in column 1 or 13 to the next well in column 2 or 14 respectively and successively with the help of a Minitrack robot. • Assay plates: Identical assay plates were then prepared by adding […] each of compound dilutions of the compound plates into 384-well “assay plates”. In the following the compounds were mixed with 50 μL of assays components (cells or enzyme) and tested for their inhibitory activity.
(§3) Compounds of Formula (I) were tested for their antiproliferative effect on Ba/F3 cells expressing either Tel-TrkA, Tel-TrkB or Tel-TrkC and an additional panel of 34 selected diverse kinases activated by fusion to the dimerizing partners Bcr or Tel (Abl, A1K, BMX, EphA3, EphB2, FGFR2, FGFR3, FGFR4, FGR, FLT1, FLT3, FLT4, FMS, IGF1R, InsR, JAK1, JAK2, JAK3, KDR, Kit, Lck, Lyn, MER, MET, PDGFRb, RET, RON, Ros-1, Src, Aurora, TIE2, TYK2, Tie1, ZAP70). The antiproliferative effect of these compounds on the different cell lines and on the non transformed cells were tested at 12 different concentrations of 3-fold serially diluted compounds in 384 well plates as described above (in media lacking IL3). The IC50 values of the compounds the different cell lines were determined from dose response curves.
(§4) The cell line used is the luciferase expressing Ba/F3 murine hematopoietic progenitor cell line transformed with human Tel-TrkA, Tel-TrkB or Tel-TrkC cDNAs (Ba/F3 EN A/B/C). These cells maintained in RPMI/10% fetal bovine serum (RPMI/FCS) supplemented with penicillin 50 mg/mL, streptomycin 50 mg/mL and L-glutamine […]. Untransformed Ba/F3 cells were similarly maintained with the addition 5 ng/ml of murine recombinant IL3. 50 μl of a Ba/F3 or Ba/F3 EN A/B/C cell suspension were plated in Greiner 384 well microplates (white)) at a density of 2000 cells per well. […] The cells were incubated for 48 hours at 37° C., 5% CO2. 25 μl of Bright Glo® (Promega) luciferase substrate is added to each well. The emited luminiscence is quantified using the ACQUEST™ luminescence system (Molecular Devices). IC50 values were calculated by linear regression analysis of the percentage inhibition of each compound at 12 concentrations.

[2] = target: T2, Tel-TrkB (Homo sapiens, UniProt Q16620); test: Inhibition of proliferation of Ba/F3 cells expressing Tel-TrkB (BaF3/Tel-TrkB); format: cell-based; settings: Ba/F3 Tel-TrkB cells; read-out: Ba/F3 Tel-TrkB IC 50
T2 construct: dimerization domain of Tel (ETV6) transcription factor (fusion partner, human ETV6 P41212); expressed in transfected cells; host or cells: luciferase expressing Ba/F3 murine hematopoietic progenitor cells; the other entry of the earlier key: ETV6 (P41212, Transcription factor ETV6)
T2 sequence (Q16620 538-822 limits assumed): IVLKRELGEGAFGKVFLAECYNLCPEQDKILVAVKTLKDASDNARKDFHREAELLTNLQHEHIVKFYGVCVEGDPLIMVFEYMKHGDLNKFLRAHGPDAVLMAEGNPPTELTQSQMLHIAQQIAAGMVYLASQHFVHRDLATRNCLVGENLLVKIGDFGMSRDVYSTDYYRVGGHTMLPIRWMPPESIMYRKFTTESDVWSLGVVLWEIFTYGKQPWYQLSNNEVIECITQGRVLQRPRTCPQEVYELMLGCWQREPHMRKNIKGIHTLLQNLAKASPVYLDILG
Experimental: as §1, §2, §3, §4

[3] = target: T3, full length rTrkA and mNGF (Rattus norvegicus, UniProt P35739); test: Inhibition of proliferation of Ba/F3 cells co-expressing full length rTrkA and mNGF (BaF3/TrkA-NFG); format: cell-based; settings: BaF3 TRKA-NGF cells, CTG readout
T3 construct: co-expressing full length rTrkA and mNGF; expressed in transfected cells; host or cells: Ba/F3 cells
T3 sequence (P35739 33-799): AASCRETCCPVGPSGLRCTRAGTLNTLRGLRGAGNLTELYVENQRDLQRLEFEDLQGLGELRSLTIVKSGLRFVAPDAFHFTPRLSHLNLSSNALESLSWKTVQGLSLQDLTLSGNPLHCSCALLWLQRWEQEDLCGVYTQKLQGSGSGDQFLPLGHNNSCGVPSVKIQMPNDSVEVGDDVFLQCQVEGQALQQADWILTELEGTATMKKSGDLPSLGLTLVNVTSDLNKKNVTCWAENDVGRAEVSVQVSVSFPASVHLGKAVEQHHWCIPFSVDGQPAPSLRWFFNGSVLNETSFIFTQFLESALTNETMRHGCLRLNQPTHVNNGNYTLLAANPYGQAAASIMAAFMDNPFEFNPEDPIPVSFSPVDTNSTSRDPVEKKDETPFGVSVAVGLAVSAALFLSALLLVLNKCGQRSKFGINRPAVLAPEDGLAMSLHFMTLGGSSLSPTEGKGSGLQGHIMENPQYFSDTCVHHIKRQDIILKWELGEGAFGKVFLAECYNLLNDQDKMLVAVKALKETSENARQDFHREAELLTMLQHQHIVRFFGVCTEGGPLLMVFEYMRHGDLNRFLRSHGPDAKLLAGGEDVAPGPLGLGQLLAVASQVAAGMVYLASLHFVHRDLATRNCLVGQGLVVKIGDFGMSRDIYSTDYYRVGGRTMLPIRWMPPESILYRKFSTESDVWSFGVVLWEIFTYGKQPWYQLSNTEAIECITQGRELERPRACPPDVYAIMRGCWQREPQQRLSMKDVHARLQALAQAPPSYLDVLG
T3 sequence (P01139 122-241 partner): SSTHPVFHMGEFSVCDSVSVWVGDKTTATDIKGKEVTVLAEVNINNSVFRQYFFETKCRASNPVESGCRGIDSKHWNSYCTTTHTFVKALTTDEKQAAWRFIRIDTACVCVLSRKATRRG

[4] = tested on: parental BaF3 cells; test: Proliferation of parental (untransformed) Ba/F3 cells maintained with IL3; format: cell-based, murine; settings: read-out: Ba/F3 IC 50
Experimental: as §1, §2
The cell line used is the luciferase expressing Ba/F3 murine hematopoietic progenitor cell line transformed with human Tel-TrkA, Tel-TrkB or Tel-TrkC cDNAs (Ba/F3 EN A/B/C). These cells maintained in RPMI/10% fetal bovine serum (RPMI/FCS) supplemented with penicillin 50 mg/mL, streptomycin 50 mg/mL and L-glutamine […]. Untransformed Ba/F3 cells were similarly maintained with the addition 5 ng/ml of murine recombinant IL3. 50 μl of a Ba/F3 or Ba/F3 EN A/B/C cell suspension were plated in Greiner 384 well microplates (white)) at a density of 2000 cells per well. 50 nl of serially diluted test compound (10-0.0001 mM in DMSO solution) is added to each well. The cells were incubated for 48 hours at 37° C., 5% CO2. 25 μl of Bright Glo® (Promega) luciferase substrate is added to each well. The emited luminiscence is quantified using the ACQUEST™ luminescence system (Molecular Devices). IC50 values were calculated by linear regression analysis of the percentage inhibition of each compound at 12 concentrations.

[5] = Mus musculus, BaF3, parental Ba/F3 cells

Row | SMILES | IC50 [1] [nM] | IC50 [2] [nM] | BaF3 TRKA-NGF CTG IC 50 [3] [nM] | IC50 [4, 5] [nM] | IC50 ([4]; parental Ba/F3 cells) [nM]
1 | Cc1c[nH]c(C2CCN(c3cccc(-c4cnc5ccc(N6CCOCC6c6cccc(F)c6)nn45)n3)CC2)n1 (stereo not shown) [Table 7-Compound 143] | 34 | 53 | 31 | > 11000 | 
2 | CC(C)(C)OC(=O)N1CCN(c2cccc(-c3cnc4ccc(N5CCOCC5c5cccc(F)c5)nn34)n2)CC1 (stereo not shown) [Table 2-Compound 16] | 100 | 120 | 140 | > 7670 | 
3 | Fc1cccc([C@H]2CCCN2c2ccc3ncc(-c4cccc(N5CC[C@@H](NCC(F)(F)F)C5)n4)n3n2)c1 [Table 7-Compound 217] | 27 | 30 | 60 | > 11000 | 
4 | O=C(NCCO)c1ccc(-c2cnc3ccc(N4CCCC4c4cccc(F)c4)nn23)cn1 (stereo not shown) [Table 3-Compound 19] | 1020 | 540 | 370 | > 10000 | 
5 | O=C(CO)NC1CN(c2cccc(-c3cnc4ccc(N5CCC[C@@H]5c5cccc(F)c5)nn34)n2)C1 [Table 7-Compound 132] | 2 | 2 | 4 | > 11000 | 
6 | OCCNc1ncc(-c2cnc3ccc(N4CCCC4c4cccc(F)c4)nn23)cn1 (stereo not shown) [Table 7-Compound 171] | 224 | 129 | 238 | > 11000 | 
7 | CCOC(=O)C1CCN(c2cccc(-c3cnc4ccc(N5CCOCC5c5cccc(F)c5)nn34)n2)CC1 (stereo not shown) [Table 7-Compound 17] | 81 | 44 | 93 | > 10000 | 
8 | Fc1cccc(C2COCCN2c2ccc3ncc(-c4cccc(NCCN5CCNCC5)n4)n3n2)c1 (stereo not shown) [Table 7-Compound 10] | 61 | 71 | 77 | > 10000 | 
9 | Fc1cccc(C2CCCN2c2ccc3ncc(-c4cccc(-c5cnco5)n4)n3n2)c1 (stereo not shown) [Table 7-Compound 20] | 1.8 | 1.6 | 3.6 | > 10000 | 
10 | CN(C)CCNC(=O)C1CCN(c2cccc(-c3cnc4ccc(N5CCCC5c5cccc(F)c5)nn34)n2)CC1 (stereo not shown) [Table 7-Compound 115] | 14 | 14 | 16 | 4840 | 
11 | Fc1ccc(F)c(C2CCCN2c2ccc3ncn(-c4cccc(-c5ncc[nH]5)c4)c3n2)c1 (stereo not shown) [Table 1-Compound 4] | 1600 | 790 |  |  | 
12 | OC1CCN(c2nccc(-c3cccc(-c4cnc5ccc(N6CCCC6c6cccc(F)c6)nn45)n3)n2)CC1 (stereo not shown) [Table 7-Compound 57] | 20 | 20 | 20 | 6900 | 
13 | OCC1CCCN(c2cccc(-c3cnc4ccc(N5CCCC5c5cccc(F)c5)nn34)n2)C1 (stereo not shown) [Table 7-Compound 98] | 6 | 9 | 13 | > 11000 | 
14 | OC1CCN(c2cncc(-c3cnc4ccc(N5CCCC5c5cccc(F)c5)nn34)n2)CC1 (stereo not shown) [Table 7-Compound 121] | 3.34 | 3.02 | 4.88 | > 10000 | 
15 | OC1CCN(Cc2cccc(-c3cnc4ccc(N5CCCC5c5cccc(F)c5)nn34)n2)C1 (stereo not shown) [Table 3-Compound 45] | 1020 | 790 | 1020 | 8060 | 
16 | O=C(NOCC1CC1)C1CCN(c2cccc(-c3cnc4ccc(N5CCOCC5c5cccc(F)c5)nn34)n2)CC1 (stereo not shown) [Table 7-Compound 22] | 43 | 23 | 35 | > 10000 | 
17 | CCOC(=O)N1CCC(n2c(=O)[nH]c3cc(-c4cnc5ccc(N6CCOCC6c6cccc(F)c6)nn45)ccc32)CC1 (stereo not shown) [Table 2-Compound 19] | 2170 | 1700 | 1420 | 5050 | 
18 | OCCC1CCN(c2cccc(-c3cnc4ccc(N5CCOCC5c5cccc(F)c5)nn34)n2)CC1 (stereo not shown) [Table 2-Compound 23] | 10 | 24 | 12 | > 10000 | 
19 | CC1CN(Cc2cccc(-c3cnc4ccc(N5CCCC5c5cccc(F)c5)nn34)n2)CC(C)O1 (stereo not shown) [Table 3-Compound 44] | 1120 | 1140 | 1200 | > 10000 | 
20 | O=C1CCN(c2cccc(-c3cnc4ccc(N5CCC[C@@H]5c5cccc(F)c5)nn34)n2)CC1 [Table 7-Compound 181] | 7 | 8 | 14 | > 11000 | 
21 | Fc1cccc(C2CCCN2c2ccc3ncc(-c4cc5ccccc5nc4F)n3n2)c1 (stereo not shown) [Table 7-Compound 153] | 346 | 244 | 698 | > 11000 | 
22 | O=C(COCc1ccccc1)N1CCN(c2cccc(-c3cnc4ccc(N5CCC[C@@H]5c5cccc(F)c5)nn34)n2)CC1 [Table 7-Compound 191] | 14 | 12 | 16 | > 9560 | 
23 | Fc1cccc(C2CCCN2c2ccc3ncc(-c4csc(CN5CCNCC5)n4)n3n2)c1 (stereo not shown) [Table 3-Compound 30] | 1100 | 1060 | 1340 | > 10000 | 
24 | Fc1cccc(C2CCCN2c2ccc3ncc(-c4cccc(-c5ccnc(N6CC7(COC7)C6)n5)n4)n3n2)c1 (stereo not shown) [Table 7-Compound 136] | 13 | 24 | 39 | 4320 | 
25 | Fc1cccc(C2COCCN2c2ccc3ncc(-c4ccc(CN5CCOCC5)cn4)n3n2)c1 (stereo not shown) [Table 2-Compound 20] | 390 | 390 | 280 | > 10000 | 
26 | CC(C)NC(=O)CN1CCN(c2cccc(-c3cnc4ccc(N5CCCC5c5cccc(F)c5)nn34)n2)CC1 (stereo not shown) [Table 4-Compound 32] | 1.4 | 1.5 | 2.6 |  | 4990
27 | CNC1CCN(c2cc(-c3cccc(-c4cnc5ccc(N6CCCC6c6cccc(F)c6)nn45)n3)ccn2)CC1 (stereo not shown) [Table 7-Compound 249] | 144 | 147 | 130 | 6380 | 
